From article PMC11406233 (Proceedings of the National Academy of Sciences of the …, 2024)
Read-outs that look alike come from different tables or passages of the source.

What was measured:
SCoV2^WK521WT [1] = assay: microbe, parasite or virus in culture; details: Severe acute respiratory syndrome coronavirus 2, VeroE6/TMPRSS2, read-out: EC50 from cell-based assay
SCoV2^WK521WT [2] = assay: microbe, parasite or virus in culture; format: cell-based; details: for EC50: Severe acute respiratory syndrome coronavirus 2, read-out: EC50 from cell-based assay

| SMILES | EC50 (SCoV2^WK521WT [1]) | Difference in the EC50 values of NIR and TKB245 (SCoV2^WK521WT [2]) | EC50 (SCoV2^WK521WT [2]) |
| --- | --- | --- | --- |
| CC(C)(C)[C@H](NC(=O)C(F)(F)F)C(=O)N1C[C@H]2[C@@H]([C@H]1C(=O)N[C@@H](C[C@@H]1CCNC1=O)C(=O)c1nc3c(F)cccc3s1)C2(C)C [TKB245] | 330 nM | 34.7 fold | 1.5 nM |
| COc1cccc2[nH]c(C(=O)N[C@@H](CC(C)C)C(=O)N[C@@H](C[C@@H]3CCNC3=O)C(=O)c3nc4ccccc4s3)cc12 [5h] | 4100 nM | – | 200 ± 90 nM |
| CC(C)(C)[C@H](NC(=O)C(F)(F)F)C(=O)N1C[C@H]2[C@@H]([C@H]1C(=O)N[C@H](C#N)C[C@@H]1CCNC1=O)C2(C)C [nirmatrelvir, reference compound] | 1500 nM | – | 52 nM |
